# According to PMC6321014, “Effects of Toona sinensis Leaf Extract and Its Chemical Constituents on Xanthine Oxidase Activity and Serum Uric Acid Levels in Potassium Oxonate-Induced Hyperuricemic Rats” (Molecules, 2018):
# Several values for one entry are separate records, joined by “and”; a condition that tells them apart may be missing. Equal entries are not always repeated. Entries after “also recorded” stand apart in the source; their conditions may differ. Where two headings read alike, the source gives them in different places.
# Tests used:
# [1] = target: T1, xanthine oxidase (XO) enzyme (bovine milk) (Bos taurus, UniProt P80457); experiment: In vitro xanthine oxidase (XO) assay, uric acid formation at 295 nm with xanthine as substrate; format: biochemical; settings: for IC50: repeated three times; for inhibition at 100 µM: read-out: Xanthine Oxidase Inhibition %; for Xanthine Oxidase Kinetic Mode: Lineweaver-Burk and Dixon plots
# T1 construct: 20 µL of 0.2 unit XO enzyme (bovine milk) in buffer; from tissue; host or cells: bovine milk
# Procedure: We subsequently analyzed the type of inhibition using both Lineweaver–Burk (Figure 2C) and Dixon (Figure 2D) plots.
# XO activity was assayed spectrophotometrically on a Spectra Max M2 microplate reader, using published experimental procedures, with slight modifications. First, 135 µL of 100 mM sodium pyrophosphate buffer (HCl, pH 7.5), 20 µL of 0.2 unit XO enzyme (bovine milk) in buffer, and 5 µL of sample (test extract or compound) in DMSO were mixed at 37 °C. The reaction was started by adding 40 µL of substrate (0.5 mM xanthine) in buffer to the mixture. The reaction mixture (200 µL) was incubated at 37 °C in a 300 µL well plate, and the UV absorbance was determined at 295 nm.
# [2] = tested on: potassium oxonate-induced hyperuricemic rats; experiment: Serum uric acid levels in potassium oxonate (PO)-induced hyperuricemic rats; format: in vivo, rat (male Sprague-Dawley); settings: for effect on serum uric acid levels (in words): 40 mg/kg, PO-induced hyperuricemic rats
# Procedure: Male Sprague–Dawley rats (7 weeks old) were purchased from Orient Bio (Seongmam, Korea) and were housed at a temperature of 22 ± 1 °C with 50 ± 10% humidity under a 12 h light/dark cycle with free access to a laboratory diet and water. The experimental design was approved by the Committee on Animal Care of the Korea Institute of Oriental Medicine, and all experiments were performed in accordance with committee guidelines. The uricase inhibitor PO was administered to induce hyperuricemia. The rats were divided into the following five groups (n = 6/group): (1) Normal control group; […] (3) PO + 300 mg/kg TSE group; […] Blood samples were collected via cardiac puncture under anesthesia 2 h after oral treatment. Serum was obtained by centrifugation of blood at 3000× g for 10 min at 4 °C. The separated serum was stored at −80 °C until analysis. Serum uric acid levels were determined by an enzymatic-colorimetric method using a commercial assay kit (Biovision, Milpitas, CA, USA) according to the manufacturer’s protocol.
# [3] = target: T1, xanthine oxidase (XO) enzyme (bovine milk); settings: cited from earlier work; for XO inhibitory effect (in words): literature statement, ref 23 (Cos et al.)
# [4] = isolated compounds and controls, read-out: Xanthine Oxidase IC50
# [5] = sample concentration 100 µM for each compound
# T1 sequence (P80457 whole entry): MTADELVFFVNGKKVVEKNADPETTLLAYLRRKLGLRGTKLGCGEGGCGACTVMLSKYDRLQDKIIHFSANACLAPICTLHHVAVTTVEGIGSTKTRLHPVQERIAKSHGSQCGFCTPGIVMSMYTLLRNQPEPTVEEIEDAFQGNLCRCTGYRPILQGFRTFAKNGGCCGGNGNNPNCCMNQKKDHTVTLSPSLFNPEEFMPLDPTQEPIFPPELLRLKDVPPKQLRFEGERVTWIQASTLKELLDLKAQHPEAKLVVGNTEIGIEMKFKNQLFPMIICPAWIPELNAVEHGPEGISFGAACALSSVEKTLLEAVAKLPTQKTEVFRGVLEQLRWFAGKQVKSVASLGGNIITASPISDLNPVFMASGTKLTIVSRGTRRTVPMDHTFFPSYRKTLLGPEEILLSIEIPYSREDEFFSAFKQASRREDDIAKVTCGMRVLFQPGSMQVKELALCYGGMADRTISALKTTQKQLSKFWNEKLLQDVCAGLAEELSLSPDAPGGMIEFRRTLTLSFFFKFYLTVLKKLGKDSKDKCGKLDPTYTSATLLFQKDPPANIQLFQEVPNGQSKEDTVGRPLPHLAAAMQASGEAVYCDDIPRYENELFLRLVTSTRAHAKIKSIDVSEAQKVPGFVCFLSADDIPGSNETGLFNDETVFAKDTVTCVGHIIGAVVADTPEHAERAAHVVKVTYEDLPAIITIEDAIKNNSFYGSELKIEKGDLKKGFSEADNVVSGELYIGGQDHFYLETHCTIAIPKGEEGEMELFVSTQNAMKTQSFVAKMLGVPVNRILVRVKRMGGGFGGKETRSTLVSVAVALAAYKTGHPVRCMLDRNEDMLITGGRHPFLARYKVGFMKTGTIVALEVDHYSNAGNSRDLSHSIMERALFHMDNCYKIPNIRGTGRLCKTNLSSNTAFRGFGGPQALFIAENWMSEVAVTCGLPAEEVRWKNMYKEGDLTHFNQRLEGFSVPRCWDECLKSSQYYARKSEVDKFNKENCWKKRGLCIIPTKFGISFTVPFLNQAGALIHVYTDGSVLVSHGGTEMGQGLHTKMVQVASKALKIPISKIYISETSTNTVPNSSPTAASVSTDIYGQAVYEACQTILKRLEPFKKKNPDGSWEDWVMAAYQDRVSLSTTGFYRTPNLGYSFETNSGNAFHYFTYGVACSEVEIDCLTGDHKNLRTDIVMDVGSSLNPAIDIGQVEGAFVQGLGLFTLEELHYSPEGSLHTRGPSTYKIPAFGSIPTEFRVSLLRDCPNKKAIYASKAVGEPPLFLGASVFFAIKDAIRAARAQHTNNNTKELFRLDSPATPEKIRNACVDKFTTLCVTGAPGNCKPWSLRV
smiles,measurement,setting,value
"O=c1c(O[C@@H]2O[C@H](CO)[C@@H](O)[C@H](O)[C@H]2O)c(-c2ccc(O)c(O)c2)oc2cc(O)cc(O)c12 [Compound 2, quercetin-3-O-β-D-glucopyranoside]",IC50,[1]; [4],> 100 µM
same,inhibition at 100 µM,[1]; [5],47.8 ± 1.1%
"Oc1ncnc2[nH]ncc12 [Allopurinol, allopurinol, reference compound]",Xanthine Oxidase Kinetic Mode,[1],Competitive
same,inhibition at 100 µM,[1],> 98%
same,decrease in serum uric acid level,"[2]; 10 mg/kg oral gavage, positive control, rats",43.5%
"O=c1[nH]c(=O)c2c[nH]nc2[nH]1 [Oxypurinol, oxypurinol, reference compound]",XO inhibitory activity compared to allopurinol (in words),"[3]; XO screening, ref 25 (Tamta et al.)",much lower inhibitory activity than allopurinol
same,IC50,[1]; [4],28.4 ± 0.5 µM
same,inhibition at 100 µM,[1]; [5],87.6 ± 0.9%
O=c1c(O)c(-c2ccc(O)c(O)c2)oc2cc(O)cc(O)c12 [quercetin],XO inhibitory effect (in words),[3],strong XO inhibitory effects
O=c1c(O)c(-c2ccc(O)cc2)oc2cc(O)cc(O)c12 [kaempferol],XO inhibitory effect (in words),[3],strong XO inhibitory effects
"C[C@@H]1O[C@@H](OC[C@H]2O[C@@H](Oc3c(-c4ccc(O)c(O)c4)oc4cc(O)cc(O)c4c3=O)[C@H](O)[C@@H](O)[C@@H]2O)[C@H](O)[C@H](O)[C@H]1O [Compound 1, quercetin-3-O-rutinoside]",IC50,[1]; [4],> 100 µM
same,inhibition at 100 µM,[1]; [5],42.9 ± 1.4%
"O=C(OC[C@H]1O[C@@H](OC(=O)c2cc(O)c(O)c(O)c2)[C@H](OC(=O)c2cc(O)c(O)c(O)c2)[C@@H](OC(=O)c2cc(O)c(O)c(O)c2)[C@@H]1OC(=O)c1cc(O)c(O)c(O)c1)c1cc(O)c(O)c(O)c1 [Compound 3, 1,2,3,4,6-penta-O-galloyl-β-D-glucopyranose]",Ki,"[1]; Dixon plots, substrate 50, 100, 200 µM, read-out: Xanthine Oxidase Ki (inhibition constant)",3.1 µM
same,Xanthine Oxidase Kinetic Mode,[1],noncompetitive inhibitor
same,reversibility of XO inhibition,[1]; compound 0-12.5 μM versus XO 0-0.2 unit/mL,reversible XO inhibitor
same,IC50,[1]; [4],2.8 µM and 2.79 µM
same,inhibition at 100 µM,[1]; [5],96.4 ± 0.7%
same,reduction in serum uric acid levels compared to the PO group,"[2]; 40 mg/kg oral gavage 1 h after PO, blood 2 h after treatment, rats",20.7%
same,effect on serum uric acid levels (in words),[2],significantly decreased serum uric acid levels; also recorded: lowered serum uric acid levels
"CC1OC(Oc2c(-c3ccc(O)c(O)c3)oc3cc(O)cc(O)c3c2=O)C(O)C(O)C1O [Compound 4, quercetin-3-O-α-L-rhamnopyranoside]",IC50,"[1]; Xanthine Oxidase IC50, isolated compounds and controls",> 100 µM
same,inhibition at 100 µM,[1],38.9 ± 1.9%
same,effect on serum uric acid levels (in words),[2],no effect
